pEC50: −log10 of the molar value.
What was measured:
human GnRH-R = biological target: T1, human GnRH-R (Homo sapiens, UniProt P30968); experiment: Calcium-based (fura-2) kinetic assay of GnRH-R agonism; format: cell-based; conditions: HEK293 cells transiently transfected with human GnRH-R; fura-2 ratio, 96-well, Flexstation 3; experiments performed a minimum of three times; read-out: EC50 for increase in intracellular [Ca2+]
T1 construct: host or cells: HEK293 (ATCC CRL-1573)
T1 sequence (P30968 1-328): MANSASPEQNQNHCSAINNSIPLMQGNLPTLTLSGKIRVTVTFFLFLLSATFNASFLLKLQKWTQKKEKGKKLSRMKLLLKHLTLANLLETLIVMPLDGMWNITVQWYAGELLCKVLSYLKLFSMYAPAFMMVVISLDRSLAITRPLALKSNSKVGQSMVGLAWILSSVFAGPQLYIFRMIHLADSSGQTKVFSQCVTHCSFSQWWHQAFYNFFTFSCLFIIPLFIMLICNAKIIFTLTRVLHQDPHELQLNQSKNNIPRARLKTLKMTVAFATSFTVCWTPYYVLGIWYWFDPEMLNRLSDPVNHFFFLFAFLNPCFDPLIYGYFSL
Procedure: For this purpose, fura-2-based kinetic assays to monitor the [Ca^2+] were performed in real-time using suspensions of HEK293 cells transiently transfected with the human GnRH-R (Figure 2A–I).
HEK293 cells transfected with the human GnRH-R served as a platform with which to test for agonist actions of individual test compounds. These cells were loaded with the ratiometric Ca^2+ indicator fura-2 so that the change in intracellular [Ca^2+] in response to agonist stimulation could be monitored in real time in a 96-well format. For these assays, the individual test compounds were administered at the 100 s time point.
Two days post-transfection, the HEK293 cells were harvested via trypsinization to obtain single-cell suspensions that were plated at 80% density on rat tail collagen-coated 96-well Costar 3904 plates for loading with the ratiometric Ca^2+ indicator fura-2. Measurements of the intracellular [Ca^2+] were performed using a Flexstation 3 microplate reader (Molecular Devices, Sunnyvale, CA, USA). Briefly, test solutions containing GnRH-R agonists were administered to individual wells of a 96-well plate using the automated pipetting feature of the Flexstation under computer control. […] Emitted light was detected at 505/15 nm, and the ratio of emission light intensity due to excitation at 335/9 and 375/9 nm was calculated. […]

SKOV-3 cells [1] = experiment: Annexin V / propidium iodide apoptosis assay by flow cytometry; format: cell-based, human; conditions: 1 μM, 2, 3 and 4 days; flow cytometry
From the text: We next evaluate the abilities of Con-3 and Con-7 at concentrations of 1 μΜ to induce cell death by determining the percentages of live, apoptotic and necrotic cells after treatment of SKOV-3 cells with the GnRH conjugates. As shown in Figure 5 and Figures S1–S3 on day 2, the majority of SKOV-3 cells were viable (Q4 quadrant), treated either with Con-3, Con-7 or mitoxantrone, whereas the percentage of apoptotic cells (late or early apoptotic) (Q1, Q2 quadrants) was only 10.1%, 10.87% and 13.1% after treatment with Con-3, Con-7 or mitoxantrone, respectively. […] Cell viability further decreased on day 4 with a concomitant increase in apoptosis. Specifically, the percentage of apoptotic cells was 53.5%, 59.6% and 54.3% after treatment with Con-3, Con-7 or mitoxantrone (Figure 5 and Figures S7–S9). In all phases, the percentage of the necrotic and late apoptotic cells (Q3 quadrant) was very small.
Figure 5 Determination of viability, apoptosis, or necrosis of SKOV-3 cells after their treatment with 1 μM Con-3, Con-7, or mitoxantrone for 2, 3, and 4 days at 37 °C. At the end of the incubation the cells were further incubated in binding buffer supplied by Biotium, (CF488A Apoptosis Detection kit) and analyzed on a flow cytometer (excitation 488 nm), in the FITC channel (filter 530 nm) for detection of the Annexin V-positive cellsand in the propidium iodide, or PI, channel (filter 616 nm) for detection of the PI-positive cells. The figures are from a representative experiment performed three times with similar results. A higher resolution of the images in Figure 5 is provided in the Supplementary Material (Figures S1–S9). TEXT PRINTED IN THE PICTURE: Con-3: Q3: 4,19 (Day 2); Q2: 7,12 (Day 2); Q4: 85,7 (Day 2); Q1: 2,98 (Day 2); Q3: 5,31 (Day3); Q2: 19,5 (Day3); Q4: 58,0 (Day3); Q1: 17,1 (Day3); Q3: 3,54 (Day4); Q2: 17,1 (Day4); Q4: 43,0 (Day4); Q1: 36,4 (Day4) | Con-7: Q3: 6,31 (Day 2); Q2: 7,74 (Day 2); Q4: 82,8 (Day 2); Q1: 3,13 (Day 2); Q3: 8,11 (Day3); Q2: 19,8 (Day3); Q4: 56,8 (Day3); Q1: 15,3 (Day3); Q3: 3,48 (Day4); Q2: 19,7 (Day4); Q4: 36,9 (Day4); Q1: 39,9 (Day4) | Mitoxantrone: Q3: 6,49 (Day 2); Q2: 9,40 (Day 2); Q4: 80,4 (Day 2); Q1: 3,67 (Day 2); Q3: 7,13 (Day3); Q2: 18,9 (Day3); Q4: 61,0 (Day3); Q1: 13,1 (Day3); Q3: 2,72 (Day4); Q2: 17,3 (Day4); Q4: 43,0 (Decimal sign as read) (Day4); Q1: 37,0 (Day4) DOUBTS OF THE COPYIST ABOUT THIS PICTURE: All quadrant values: the print is very small, and the decimal sign may be a comma or a point in every value / Con-3, Day 2, Q4: 85,7 or 86,7 / Con-3, Day 2, Q1: 2,98 or 2,96 / Con-3, Day3, Q3: 5,31 or 6,31 / Con-3, Day3, Q2: 19,5 or 19,6 / Con-3, Day3, Q4: 58,0 or 56,0 / Con-3, Day4, Q3: 3,54 or 3,64 / Con-3, Day4, Q1: 36,4 or 38,4 / Con-7, Day 2, Q3: 6,31 or 8,31 / Con-7, Day 2, Q4: 82,8 or 82,6 / Con-7, Day 2, Q1: 3,13 or 3,15 / Con-7, Day3, Q3: 8,11 or 6,11 / Con-7, Day3, Q2: 19,8 or 19,6 / Con-7, Day3, Q4: 56,8 or 58,8 / Con-7, Day3, Q1: 15,3 or 15,8 / Con-7, Day4, Q3: 3,48 or 3,46 / Con-7, Day4, Q4: 36,9 or 38,9 / Con-7, Day4, Q1: 39,9 or 38,9 / Mitoxantrone, Day 2, Q3: 6,49 or 8,49 / Mitoxantrone, Day 2, Q2: 9,40 or 8,40 / Mitoxantrone, Day 2, Q4: 80,4 or 60,4 / Mitoxantrone, Day 2, Q1: 3,67 or 3,87 / Mitoxantrone, Day3, Q2: 18,9 or 16,9 / Mitoxantrone, Day3, Q4: 61,0 or 81,0 / Mitoxantrone, Day3, Q1: 13,1 or 15,1 […]
SKOV-3 cells were seeded into 12-well plates at a density of 50,000 cells/well and incubated overnight in DMEM/F12 (1:1) containing 3.15 g/L glucose and 10% BCS, at 37 °C and 5% CO2. At the end of the incubation, the culture medium was replaced with a fresh one containing 3.15 g/L glucose and 2% BCS, with or without GnRH analogs or mitoxantrone at a concentration of 1 μΜ, and the cells were further incubated at 37 °C and 5% CO2 for 2, 3 and 4 days. […]

SKOV-3 cells [2] = experiment: Cell proliferation (MTT) assay; format: cell-based, human; conditions: over time (days 2–4) and at various concentrations
Procedure: The antiproliferative effects of GnRH-mitoxantrone conjugates, Con-3, and Con-7, were evaluated using the SKOV-3 cells. The Con-3 and Con-7 conjugates decreased the proliferation rate of SKOV-3 cells in a dose-dependent manner on days 2, 3, and 4 (Figure 3A–C).
Figure 3 Antiproliferative activity of the GnRH analogs. Decrease in the proliferation rate of the SKOV3 cells after their treatment with increasing concentrations of Con-3, Con-7, Con-P1 or Con-P2 for 2 days (A), 3 days (B) and 4 days (C) at 37 °C. At the end of the incubation, the cells were further incubated with 0.5 mg/mL MTT for 4 h at room temperature and the formed purple formazan crystals were quantified by measuring absorbance at 594 nm. The means ± S.E (triplicate determination) are shown from a representative experiment performed 3 times with similar results. The proliferation rates of cells treated with 1 μΜ of GnRH analogs were used to plot the graph D which depicts the decrease in cell growth over the incubation time (D). Statistical analysis was performed using one-way ANOVA.
At the end of the incubation, the cells were further incubated with 0.5 mg/mL MTT for 4 h at room temperature and the formed purple formazan crystals were quantified by measuring absorbance at 594 nm. The means ± S.E (triplicate determination) are shown from a representative experiment performed 3 times with similar results. […] Statistical analysis was performed using one-way ANOVA.
SKOV-3 cells (kindly provided by Prof. Dimitrios Mavroudis, University of Crete) were seeded into 96-well plates at a density of 6000 cells/well, in triplicates, and incubated overnight in Dulbecco’s modified Eagle’s medium/F12 (DMEM/F12) (1:1), containing 3.15 g/L glucose and 10% bovine calf serum (BCS, HyClone), at 37 °C and 5% CO2. At the end of the incubation, the culture medium was replaced with a fresh one containing 3.15 g/L glucose and 2% BCS, with or without increasing concentrations of GnRH analogs or mitoxantrone (0.1 nM–10 µM), and the cells were further incubated at 37 °C and 5% CO2 for 2, 3 and 4 days. Subsequently, (3-(4,5-dimethylthiazol-2-yl)-2,5- diphenyl tetrazolium bromide) (MTT) was added at a final concentration of 0.5 mg/mL, and the mixtures were incubated for 4 h at room temperature in the dark, allowing the viable cells to reduce the MTT to formazan crystals. The supernatants were removed, and the purple formazan crystals were dissolved in isopropanol containing 4% HCl (100 μL/well) by mixing thoroughly for 30 min in the dark, before the quantification of the absorbance at 594 nm using a Dynatech MicroElisa reader (Chantilly, VA, USA). The percentage of the proliferation rate (% proliferation rate) treated with a GnRH analog was determined based on the following equation: % proliferation rate = (absorbance of cells treated with a GnRH analog/absorbance of untreated cells) × 100. The % viability of the untreated cells (control) was defined as 100%. The % viabilities were analyzed by nonlinear regression analysis, using Prism 8.0 (GraphPad Software, Prism 8.0, San Diego, CA, USA).

Structure (SMILES)	pEC50 (human GnRH-R)	effect on viability of SKOV-3 cells, in words (SKOV-3 cells [1])	effect on proliferation of SKOV-3 cells, in words (SKOV-3 cells [2])
CCNC(=O)[C@@H]1CCCN1C(=O)[C@H](CCCNC(=N)N)NC(=O)[C@H](CC(C)C)NC(=O)[C@@H](CS)NC(=O)[C@H](Cc1ccc(O)cc1)NC(=O)[C@H](CO)NC(=O)[C@H](Cc1c[nH]c2ccccc12)NC(=O)[C@H](Cc1c[nH]cn1)NC(=O)[C@@H]1CCC(=O)N1 [Con-P2]	9.17		
CCNC(=O)[C@@H]1CCCN1C(=O)[C@H](CCCNC(=N)N)NC(=O)[C@H](CC(C)C)NC(=O)[C@@H](CCCCN)NC(=O)[C@H](Cc1ccc(O)cc1)NC(=O)[C@H](CO)NC(=O)[C@H](Cc1c[nH]c2ccccc12)NC(=O)[C@H](Cc1c[nH]cn1)NC(=O)[C@@H]1CCC(=O)N1 [Con-P1]		did not affect the viability of SKOV-3 cells	did not affect the proliferation of SKOV-3 cells
